# In ChEMBL document CHEMBL4402613, “Targeting ALK2: An Open Science Approach to Developing Therapeutics for the Treatment of Diffuse Intrinsic Pontine Glioma” (J Med Chem, 2020):
# Calls of active or inactive are those of the source. The calls are words filed in the database; no cut-off is given here.
# Legend:
# TGF-beta receptor type-1 = target: T1, TGF-beta receptor type-1 (Homo sapiens, UniProt P36897); format: single protein
# T1 sequence (P36897 whole entry): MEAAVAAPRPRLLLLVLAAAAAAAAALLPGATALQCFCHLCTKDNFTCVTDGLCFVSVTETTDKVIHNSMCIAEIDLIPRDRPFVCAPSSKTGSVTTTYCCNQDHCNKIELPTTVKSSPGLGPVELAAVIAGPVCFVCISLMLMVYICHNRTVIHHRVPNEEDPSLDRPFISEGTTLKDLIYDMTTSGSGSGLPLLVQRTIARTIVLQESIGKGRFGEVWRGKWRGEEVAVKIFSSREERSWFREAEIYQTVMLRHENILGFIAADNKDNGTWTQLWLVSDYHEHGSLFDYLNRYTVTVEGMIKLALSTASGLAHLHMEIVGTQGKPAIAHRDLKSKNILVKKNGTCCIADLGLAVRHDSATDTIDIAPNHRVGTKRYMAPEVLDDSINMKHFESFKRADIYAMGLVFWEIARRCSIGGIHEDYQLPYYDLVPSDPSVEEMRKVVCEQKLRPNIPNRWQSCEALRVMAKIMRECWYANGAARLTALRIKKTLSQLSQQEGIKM
# Description: Inhibition of human ALK5 using casein as substrate in presence of 10 uM [gamma33P] ATP by radioactive assay
# Activin receptor type-1 [1] = target: T2, Activin receptor type-1 (Homo sapiens, UniProt Q04771); experiment: Inhibition of C-terminal nanoluciferase-fused ALK2 (unknown origin) expressed in HEK293 cells incubated for 2 hrs followed by NanoBRET NanoGlo Substrate addition by NanoBRET assay; format: cell-based
# T2 sequence (Q04771 whole entry): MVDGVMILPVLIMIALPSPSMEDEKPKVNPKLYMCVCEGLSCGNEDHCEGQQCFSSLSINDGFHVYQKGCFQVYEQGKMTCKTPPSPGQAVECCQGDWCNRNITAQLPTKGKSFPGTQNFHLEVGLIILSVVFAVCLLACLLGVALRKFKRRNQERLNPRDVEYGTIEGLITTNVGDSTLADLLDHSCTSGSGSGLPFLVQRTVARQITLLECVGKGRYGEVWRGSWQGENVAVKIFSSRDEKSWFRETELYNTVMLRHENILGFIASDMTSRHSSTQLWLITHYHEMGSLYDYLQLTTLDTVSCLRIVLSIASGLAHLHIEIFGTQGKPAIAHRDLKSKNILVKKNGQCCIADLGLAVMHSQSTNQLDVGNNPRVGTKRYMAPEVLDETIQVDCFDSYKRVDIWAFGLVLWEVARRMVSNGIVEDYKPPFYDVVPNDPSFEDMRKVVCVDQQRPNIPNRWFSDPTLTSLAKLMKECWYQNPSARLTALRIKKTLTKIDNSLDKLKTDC
# [2] = target: Bone morphogenetic protein receptor type-1A (Homo sapiens) (UniProt P36894); experiment: Inhibition of ALK3 (unknown origin) at 1 uM
# [3] = target: Bone morphogenetic protein receptor type-1B (Homo sapiens) (UniProt O00238); experiment: Inhibition of ALK6 (unknown origin) at 1 uM
# Chain of Bone morphogenetic protein receptor type-1B (Homo sapiens) (O00238 whole entry): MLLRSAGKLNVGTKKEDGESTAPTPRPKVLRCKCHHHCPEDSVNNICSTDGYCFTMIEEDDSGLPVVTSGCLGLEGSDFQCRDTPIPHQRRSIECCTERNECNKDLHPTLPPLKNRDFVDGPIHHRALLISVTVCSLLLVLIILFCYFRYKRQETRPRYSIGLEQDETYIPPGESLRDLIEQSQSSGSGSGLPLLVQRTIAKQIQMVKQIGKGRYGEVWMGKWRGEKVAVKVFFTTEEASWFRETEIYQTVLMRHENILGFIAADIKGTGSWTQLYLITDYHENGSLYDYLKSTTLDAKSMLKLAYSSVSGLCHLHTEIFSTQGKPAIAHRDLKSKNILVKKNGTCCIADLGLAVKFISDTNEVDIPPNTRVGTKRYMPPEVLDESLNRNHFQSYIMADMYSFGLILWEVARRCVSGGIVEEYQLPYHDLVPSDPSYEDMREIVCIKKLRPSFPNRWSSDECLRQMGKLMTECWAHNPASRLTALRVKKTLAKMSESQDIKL
# [4] = target: Mitogen-activated protein kinase kinase kinase kinase 4 (Homo sapiens) (UniProt O95819); experiment: Inhibition of MAP4K4 (unknown origin) at 1 uM
# Chain of Mitogen-activated protein kinase kinase kinase kinase 4 (Homo sapiens) (O95819 2-1239 limits assumed): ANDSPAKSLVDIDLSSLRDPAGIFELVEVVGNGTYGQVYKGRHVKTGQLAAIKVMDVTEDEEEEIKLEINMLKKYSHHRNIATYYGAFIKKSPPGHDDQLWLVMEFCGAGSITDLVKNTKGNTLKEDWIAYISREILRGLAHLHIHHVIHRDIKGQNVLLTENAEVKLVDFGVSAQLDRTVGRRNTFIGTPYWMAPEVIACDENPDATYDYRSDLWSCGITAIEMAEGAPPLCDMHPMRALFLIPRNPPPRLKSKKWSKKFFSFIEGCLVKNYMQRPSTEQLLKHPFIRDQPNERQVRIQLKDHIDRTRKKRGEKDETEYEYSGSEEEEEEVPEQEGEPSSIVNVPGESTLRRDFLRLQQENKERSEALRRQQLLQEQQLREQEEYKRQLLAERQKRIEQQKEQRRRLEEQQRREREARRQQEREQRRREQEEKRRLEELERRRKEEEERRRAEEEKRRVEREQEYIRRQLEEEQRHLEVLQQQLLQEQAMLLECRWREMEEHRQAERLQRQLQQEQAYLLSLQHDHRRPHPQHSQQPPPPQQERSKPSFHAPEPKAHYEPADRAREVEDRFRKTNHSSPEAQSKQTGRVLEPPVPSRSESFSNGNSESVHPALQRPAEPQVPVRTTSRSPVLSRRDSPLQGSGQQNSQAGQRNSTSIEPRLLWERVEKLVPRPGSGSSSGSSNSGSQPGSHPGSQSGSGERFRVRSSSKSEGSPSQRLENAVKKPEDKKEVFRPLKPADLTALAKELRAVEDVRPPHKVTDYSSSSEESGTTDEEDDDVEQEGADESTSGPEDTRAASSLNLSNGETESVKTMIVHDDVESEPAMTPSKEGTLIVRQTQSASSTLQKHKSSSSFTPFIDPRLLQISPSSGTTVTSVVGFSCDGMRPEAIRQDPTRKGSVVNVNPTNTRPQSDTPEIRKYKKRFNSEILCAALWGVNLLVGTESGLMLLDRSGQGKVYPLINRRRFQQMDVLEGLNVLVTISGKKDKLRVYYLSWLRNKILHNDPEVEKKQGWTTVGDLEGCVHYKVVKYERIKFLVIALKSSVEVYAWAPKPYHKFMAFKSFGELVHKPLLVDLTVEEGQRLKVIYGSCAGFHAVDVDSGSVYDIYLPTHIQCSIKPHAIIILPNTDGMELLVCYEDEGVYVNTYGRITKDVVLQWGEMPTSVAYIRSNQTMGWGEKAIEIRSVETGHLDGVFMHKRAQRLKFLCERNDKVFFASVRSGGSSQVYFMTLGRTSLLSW
# [5] = target: Misshapen-like kinase 1 (Homo sapiens) (UniProt Q8N4C8); experiment: Inhibition of MINK (unknown origin) at 1 uM
# Chain of Misshapen-like kinase 1 (Homo sapiens) (Q8N4C8 whole entry, looked up): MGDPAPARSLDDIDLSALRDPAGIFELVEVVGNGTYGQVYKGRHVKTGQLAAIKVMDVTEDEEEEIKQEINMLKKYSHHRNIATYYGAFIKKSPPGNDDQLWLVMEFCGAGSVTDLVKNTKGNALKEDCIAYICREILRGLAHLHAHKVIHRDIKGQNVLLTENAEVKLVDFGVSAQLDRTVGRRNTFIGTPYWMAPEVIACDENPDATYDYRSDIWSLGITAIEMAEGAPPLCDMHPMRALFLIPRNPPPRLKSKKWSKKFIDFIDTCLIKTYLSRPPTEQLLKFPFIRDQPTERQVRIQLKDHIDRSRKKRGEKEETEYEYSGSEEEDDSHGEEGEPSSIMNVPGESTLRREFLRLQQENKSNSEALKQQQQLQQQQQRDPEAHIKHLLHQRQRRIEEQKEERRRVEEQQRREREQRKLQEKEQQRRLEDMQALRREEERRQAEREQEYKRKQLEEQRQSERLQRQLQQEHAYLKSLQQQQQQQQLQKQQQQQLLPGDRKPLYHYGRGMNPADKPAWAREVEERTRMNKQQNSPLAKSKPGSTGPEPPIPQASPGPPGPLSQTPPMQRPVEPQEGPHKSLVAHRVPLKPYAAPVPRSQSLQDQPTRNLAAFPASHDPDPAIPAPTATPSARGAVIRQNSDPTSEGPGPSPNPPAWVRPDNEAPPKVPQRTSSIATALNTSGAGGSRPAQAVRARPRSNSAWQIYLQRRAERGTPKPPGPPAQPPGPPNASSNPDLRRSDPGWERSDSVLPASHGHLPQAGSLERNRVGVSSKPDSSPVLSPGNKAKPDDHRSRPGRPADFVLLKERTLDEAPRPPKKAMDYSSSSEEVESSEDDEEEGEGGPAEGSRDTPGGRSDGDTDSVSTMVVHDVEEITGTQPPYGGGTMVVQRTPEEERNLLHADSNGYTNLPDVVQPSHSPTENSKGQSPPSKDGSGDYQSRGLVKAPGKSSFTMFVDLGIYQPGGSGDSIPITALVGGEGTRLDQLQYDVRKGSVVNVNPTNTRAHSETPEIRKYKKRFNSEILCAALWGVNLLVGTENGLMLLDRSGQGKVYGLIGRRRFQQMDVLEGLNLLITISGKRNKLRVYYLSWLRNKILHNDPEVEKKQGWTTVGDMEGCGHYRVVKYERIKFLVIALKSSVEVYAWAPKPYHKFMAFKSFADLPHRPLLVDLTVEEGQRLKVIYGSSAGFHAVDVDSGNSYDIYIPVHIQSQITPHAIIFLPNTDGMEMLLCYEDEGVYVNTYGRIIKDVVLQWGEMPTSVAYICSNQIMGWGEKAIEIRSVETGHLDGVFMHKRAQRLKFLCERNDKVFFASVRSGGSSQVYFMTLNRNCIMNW
# [6] = target: T3, Non-receptor tyrosine-protein kinase TNK1 (Homo sapiens) (UniProt Q13470); experiment: Inhibition of TNK1 (unknown origin) at 1 uM
# T3 sequence (whole entry): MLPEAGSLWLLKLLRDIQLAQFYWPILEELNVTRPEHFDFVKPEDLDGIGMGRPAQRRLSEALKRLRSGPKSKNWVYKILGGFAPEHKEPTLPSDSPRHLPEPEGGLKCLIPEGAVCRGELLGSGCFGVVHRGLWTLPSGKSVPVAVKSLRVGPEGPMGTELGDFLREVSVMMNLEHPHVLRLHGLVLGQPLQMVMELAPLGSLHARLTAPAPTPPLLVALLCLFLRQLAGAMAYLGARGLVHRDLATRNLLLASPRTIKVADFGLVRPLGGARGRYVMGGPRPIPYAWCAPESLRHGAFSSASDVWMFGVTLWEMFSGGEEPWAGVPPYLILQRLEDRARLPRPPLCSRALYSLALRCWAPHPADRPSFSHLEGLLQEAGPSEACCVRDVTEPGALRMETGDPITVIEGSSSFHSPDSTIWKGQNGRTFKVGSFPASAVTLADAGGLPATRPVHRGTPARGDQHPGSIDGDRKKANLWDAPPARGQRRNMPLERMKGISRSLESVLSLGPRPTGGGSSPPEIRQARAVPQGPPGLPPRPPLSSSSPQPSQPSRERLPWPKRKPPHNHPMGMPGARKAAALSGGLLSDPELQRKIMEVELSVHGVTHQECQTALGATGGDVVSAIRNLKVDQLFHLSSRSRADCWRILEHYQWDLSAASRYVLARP
# Activin receptor type-1 [7] = target: Activin receptor type-1 (Homo sapiens, UniProt Q04771, G328V); experiment: Inhibition of ALK2 G328V mutant (unknown origin)
# Chain of Activin receptor type-1 (Homo sapiens, UniProt Q04771, G328V) (Q04771 21-509 G328V limits assumed): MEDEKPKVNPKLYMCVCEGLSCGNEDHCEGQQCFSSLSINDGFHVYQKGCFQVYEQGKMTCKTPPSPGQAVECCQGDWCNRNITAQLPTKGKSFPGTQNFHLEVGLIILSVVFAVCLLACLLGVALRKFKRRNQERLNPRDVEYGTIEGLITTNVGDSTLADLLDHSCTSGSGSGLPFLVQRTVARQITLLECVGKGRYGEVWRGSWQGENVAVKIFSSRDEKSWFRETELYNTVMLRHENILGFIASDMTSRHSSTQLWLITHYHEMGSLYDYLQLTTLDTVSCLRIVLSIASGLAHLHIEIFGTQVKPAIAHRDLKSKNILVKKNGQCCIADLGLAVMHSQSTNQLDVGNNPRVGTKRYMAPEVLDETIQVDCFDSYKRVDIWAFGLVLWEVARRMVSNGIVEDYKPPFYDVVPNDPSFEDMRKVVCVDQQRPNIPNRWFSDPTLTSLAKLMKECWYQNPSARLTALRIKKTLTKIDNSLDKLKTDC
# Activin receptor type-1 [8] = target: Activin receptor type-1 (Homo sapiens, UniProt Q04771, R206H); experiment: Inhibition of human ALK2 R206H mutant using casein as substrate in presence of 10 uM [gamma33P] ATP by radioactive assay
# Chain of Activin receptor type-1 (Homo sapiens, UniProt Q04771, R206H) (Q04771 21-509 R206H limits assumed): as the sequence (Q04771 21-509 G328V limits assumed) above, with R186H, V308G counted along it
# Activin receptor type-1 [9] = target: Activin receptor type-1 (Homo sapiens, UniProt Q04771, R258G); experiment: Inhibition of ALK2 R258G mutant (unknown origin)
# Chain of Activin receptor type-1 (Homo sapiens, UniProt Q04771, R258G) (Q04771 21-509 R258G limits assumed): as the sequence (Q04771 21-509 G328V limits assumed) above, with R238G, V308G counted along it
# [10] = target: Voltage-gated inwardly rectifying potassium channel KCNH2 (Homo sapiens, UniProt Q12809)
# Chain of Voltage-gated inwardly rectifying potassium channel KCNH2 (Q12809 whole entry): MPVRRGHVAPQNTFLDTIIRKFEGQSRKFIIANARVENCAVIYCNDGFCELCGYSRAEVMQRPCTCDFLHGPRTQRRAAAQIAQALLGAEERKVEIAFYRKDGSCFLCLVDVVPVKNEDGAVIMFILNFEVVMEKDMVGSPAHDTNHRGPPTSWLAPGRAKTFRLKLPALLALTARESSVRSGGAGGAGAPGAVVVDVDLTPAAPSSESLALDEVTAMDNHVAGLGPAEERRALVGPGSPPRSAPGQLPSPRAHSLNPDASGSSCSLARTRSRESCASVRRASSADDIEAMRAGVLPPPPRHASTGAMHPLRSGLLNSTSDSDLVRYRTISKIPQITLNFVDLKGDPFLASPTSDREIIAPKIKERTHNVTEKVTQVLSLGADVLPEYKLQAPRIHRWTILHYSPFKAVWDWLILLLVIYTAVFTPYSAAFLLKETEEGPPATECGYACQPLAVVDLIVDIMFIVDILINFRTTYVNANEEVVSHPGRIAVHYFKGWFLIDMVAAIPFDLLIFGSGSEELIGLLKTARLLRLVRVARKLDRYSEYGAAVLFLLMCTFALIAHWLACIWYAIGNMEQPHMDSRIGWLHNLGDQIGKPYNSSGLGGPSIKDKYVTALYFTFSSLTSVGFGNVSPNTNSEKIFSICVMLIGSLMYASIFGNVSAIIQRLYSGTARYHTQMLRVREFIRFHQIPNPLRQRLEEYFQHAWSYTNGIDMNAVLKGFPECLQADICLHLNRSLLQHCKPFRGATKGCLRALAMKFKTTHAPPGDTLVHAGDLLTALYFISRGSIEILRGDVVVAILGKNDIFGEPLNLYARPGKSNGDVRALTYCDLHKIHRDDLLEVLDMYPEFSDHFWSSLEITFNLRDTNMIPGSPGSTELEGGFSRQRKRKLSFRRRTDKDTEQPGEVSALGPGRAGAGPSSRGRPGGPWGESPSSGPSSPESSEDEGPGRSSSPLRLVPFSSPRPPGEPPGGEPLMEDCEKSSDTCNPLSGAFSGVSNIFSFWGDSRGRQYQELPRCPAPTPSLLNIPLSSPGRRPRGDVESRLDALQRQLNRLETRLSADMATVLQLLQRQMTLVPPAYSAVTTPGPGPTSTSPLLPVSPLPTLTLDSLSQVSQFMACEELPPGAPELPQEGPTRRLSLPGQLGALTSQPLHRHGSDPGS
# Description: Inhibition of human ERG expressed in HEK293 cells measured after 5 mins by whole cell patch clamp method
# [11] = mouse, in vivo, po, 10 mg/kg, 24 h
# [12] = mouse, in vivo, po, 10 mg/kg, 24 h; remark: listed apart in the source
# [13] = mouse, in vivo, po, 10 mg/kg, 24 h; remark: listed apart in the source
# Description: Half life in CB17 SCID mouse at 10 mg/kg, po measured up to 24 hrs by LC-MS/MS analysis
# [14] = mouse, brain, po, 100 mg/kg, 4 h
# Description: Ratio of total drug concentration from brain to plasma in CB17 SCID mouse at 100 mg/kg, po measured after 4 hrs
# [15] = mouse, microsomes, 1 h, 1 µM
# Description: Microsomal stability in CD-1 mouse liver microsomes assessed as parent compound remaining at 1 uM and 37 degree C measured after 60 mins in presence of NADP+ by LC-QTOF/MS analysis
# [16] = human, microsomes, 1 h, 1 µM
# Description: Microsomal stability in human liver microsomes assessed as parent compound remaining at 1 uM and 37 degree C measured after 60 mins in presence of NADP+ by LC-QTOF/MS analysis
# in vitro [17] = conditions: human, Caco-2
# Description: Apparent permeability across apical to basolateral membrane in human Caco2 cells at 5 uM incubated for 120 mins in orbital shaker by LC-QTOF/MS analysis
# in vitro [18] = conditions: human, Caco-2; remark: listed apart in the source
# Description: Apparent permeability across basolateral to apical membrane in human Caco2 cells at 5 uM incubated for 120 mins in orbital shaker by LC-QTOF/MS analysis
smiles,measurement,setting,value
COc1cc(-c2cncc(-c3ccc(N4CCN(C)CC4)cc3)c2C)cc(F)c1C(N)=O,IC50,TGF-beta receptor type-1,1050 nM
same,IC50,Activin receptor type-1 [1],93 nM
same,inhibition,[2],Active
same,inhibition,[3],Active
same,inhibition,[4],Active
same,inhibition,[5],Active
same,inhibition,[6],Active
same,IC50,Activin receptor type-1 [7],16 nM
same,IC50,Activin receptor type-1 [8],19 nM
same,IC50,Activin receptor type-1 [9],17 nM
same,IC50,[10],> 30 µM
same,Cmax,[11],2140 ng/mL
same,AUC,[12],4056 ng·h/mL
same,t1/2,[13],2.56 h
same,BPR,[14],0.178
same,Stability,[15],Stable
same,Stability,[16],Stable
same,"Papp A→B at 2 h, 5 µM",in vitro [17],5.5 ×10⁻⁶ cm/s
same,"Papp B→A at 2 h, 5 µM",in vitro [18],16.2 ×10⁻⁶ cm/s
